Here are results for 7 compounds from patent US10370405B2, “C-3 novel triterpenone with C-28 amide derivatives as HIV inhibitors” (HETERO LABS LIMITED, priority 2016, dated 2019).

As a reminder, the IC50 is the concentration at which inhibition is half-maximal. A word on the inhibition: it is the change of the read-out against control, counted positive when it falls. Usually AUC(0-t) stands for exposure summed from dosing to a finite time, without extrapolation to infinity. A higher AUC(0-t) goes with more exposure. The term Cmax denotes the maximum level reached in the sampled fluid or tissue. In general, viability refers to a per cent measure of how many cells are alive, often set against a control. Low readings indicate a greater loss of cells, high ones better survival.

Molecules are shown by their SMILES. Like-named read-outs stand apart in the source and are kept apart here.

The test system of data set [1] is HIV-1 strain 92HT599. In words: Antiviral activity: p24 estimation in MT2 cells infected with HIV-1. The class given is cell-based. Conditions: for IC50: Human immunodeficiency virus 1, MT2; for inhibition at 0.01 µM / inhibition at 0.1 µM / inhibition at 1 µM: Human immunodeficiency virus 1, MT2 cells, HIV-1 92HT599, p24, ~96 hours. The protocol:
MT2 cells were infected with HIV-1 strain 92HT599 (10 TCID 50/30000 cells). The infected cells were plated at the concentration of ˜30 000 cells per well in 96 well plate. Test compound was added to the micro plate in defined format with the final concentration of DMSO (vehicle) is not more than 1%. Incubation was carried out in CO2 incubator for ˜96 hours for viral infection. At the end of incubation period an aliquot from each well was taken for p24 estimation. The quantitation of p24 is an index for antiviral activity of the compound. Percent inhibition was calculated with reference to control values (vehicle controls). P-24 estimation was carried out using Advance biosciences kit as per the procedure detailed by supplier.

The nature of data set [2]: Single dose oral pharmacokinetic study. Conditions: mouse, plasma; Mice oral PK @30 mg/kg. The class given is in vivo. The protocol: The test item was administered through oral route to animals (rat/mice) at 30 mg/kg dose in a suitable vehicle (10% Solutol+20% PEG) at 10 ml/kg dose volume. Blood samples (˜50 μL at each time point) were collected from retro-orbital plexus using K3 EDTA as anticoagulant in eppendorf tubes at defined time intervals 30 minutes, 1 hour, 2 hour, 4 hour, 8 hour, 24 hour & 48 hour under light ether anaesthesia. The samples were centrifuged at 3500×g to separate plasma and stored at −80° C. until analysis. Plasma […] for Mice were processed as per described in sample preparation.
Standard solutions of the test compound 1 mg/mL solutions were prepared in DMSO and further dilutions were made in methanol. The calibration curve samples for LCMSMS analysis were prepared by spiking 25 μl of Mice plasma with 2.5 μl and of the appropriate working standard solution to obtain final concentrations 0.078, 0.156, 0.312, 0.625, 1.25, 2.5, 5, 10, 20 & 40 µg/ml. To the test compound plasma extraction was carried out using Acetonitrile precipitation. After reconstitution with solvent (50% Acetonitrile in Buffer) samples were analyzed by LCMSMS to get the concentrations to calculate PK Parameters.

The nature of data set [3]: in vitro.
[4] abbreviates: 0% serum, read-out: Antiviral activity IC50 (nM) 0%.
The mark [5] stands for this setting: read-out: Antiviral activity IC50 (nM) 40% serum.

As for `CC(C)C1=C2[C@H]3CC[C@@H]4[C@@]5(C)CC[C@H](OC(=O)[C@H]6C[C@@H](C(=O)O)C6(C)C)C(C)(C)[C@@H]5CC[C@@]4(C)[C@]3(C)CC[C@@]2(C(=O)N2CCC[C@H]2c2ncc(-c3cccnc3)[nH]2)CC1=O` [Example 3, (1R,3S)-3-((((3aR,5aR,5bR,7aR,9S,11aR,11bR,13aS)-1-isopropyl-5a,5b,8,8,11a-pentamethyl-2-oxo-3a-((S)-2-(5-(pyridin-3-yl)-1H-imidazol-2-yl)pyrrolidine-1-carbonyl)-3,3a,4,5,5a,5b,6,7,7a,8,9,10,11,11a,11b,12,13,13a-octadecahydro-2H-cyclopenta[a]chrysen-9-yl)oxy)carbonyl)-2,2-dimethlcyclobutane-1-carboxylic acid], the half-inhibitory concentration (IC50) in data set [1] (setting [4]) was 1.82 nM. Moreover, the IC50 in data set [1] (setting [5]) was 0.81 nM. For the same compound, in data set [1], the inhibition at 0.01 µM is 100%, the inhibition at 0.1 µM was 100% and the inhibition at 1 µM is 100%. Further, in data set [2], the AUC(0-t) was 48600 ng·h/mL and the Cmax is 8530 ng/mL. Also, in data set [3], the viability at 4 days, 10 μM turned out to be 98%; the viability at 4 days, 30 μM came to 67%; the viability at 4 days, 100 μM was determined as 45%.
As to `CC(C)C1=C2[C@H]3CC[C@@H]4[C@@]5(C)CC[C@H](OC(=O)[C@H]6C[C@@H](C(=O)O)C6(C)C)C(C)(C)[C@@H]5CC[C@@]4(C)[C@]3(C)CC[C@@]2(C(=O)NC(C)(C)CN2CCCC2)CC1=O` [Example 12, (1R,3S)-3-((((3aR,5aR,5bR,7aR,9S,11aR,11bR,13aS)-1-isopropyl-5a,5b,8,8,11a-pentamethyl-3a-((2-methyl-1-(pyrrolidin-1-yl)propan-2-yl)carbamoyl)-2-oxo-3,3a,4,5,5a,5b,6,7,7a,8,9,10,11,11a,11b,12,13,13a-octadecahydro-2H-cyclopenta[a]chrysen-9-yl)oxy)carbonyl)-2,2-dimethlcyclobutane-1-carboxylic acid], the IC50 in data set [1] (setting [4]) is 3.71 nM. The IC50 in data set [1] (setting [5]) is 164 nM. Moreover, in data set [1], the inhibition at 0.01 µM is 9%, the inhibition at 0.1 µM is 95% and the inhibition at 1 µM was 100%. Further, in data set [2], the AUC(0-t) was 19000 ng·h/mL and the highest level (Cmax) was 5100 ng/mL. For the same compound, in data set [3], the viability at 4 days, 10 μM was found to be 100%; the viability at 4 days, 30 μM amounted to 100%; the viability at 4 days, 100 μM amounted to 96%.
With `CC(C)C1=C2[C@H]3CC[C@@H]4[C@@]5(C)CC[C@H](OC(=O)[C@H]6C[C@@H](C(=O)O)C6(C)C)C(C)(C)[C@@H]5CC[C@@]4(C)[C@]3(C)CC[C@@]2(C(=O)N2CCC[C@H]2CN2CCC(F)(F)CC2)CC1=O` [Example 7, (1R,3S)-3-((((3aR,5aR,5bR,7aR,9S,11aR,11bR,13aS)-3a-((S)-2-((4,4-difluoropiperidin-1-yl)methyl)pyrrolidine-1-carbonyl)-1-isopropyl-5a,5b,8,8,11a-pentamethyl-2-oxo-3,3a,4,5,5a,5b,6,7,7a,89,10,11,11a,11b,12,13,13a-octadecahydro-2H-cyclopenta[a]chrysen-9-yl)oxy)carbonyl)-2,2-dimethylcyclobutane-1-carboxylic acid], in data set [1] (setting [4]), the IC50 was 24.7 nM. For the same compound, the IC50 in data set [1] (setting [5]) is 313 nM. For the same compound, in data set [1], the inhibition at 0.01 µM is 100%, the inhibition at 0.1 µM was 100% and the inhibition at 1 µM was 100%. For the same compound, in data set [2], the AUC(0-t) is 28800 ng·h/mL and the concentration peaked (Cmax) at 7410 ng/mL. In addition, in data set [3], the viability at 4 days, 10 μM was determined as 65%; the viability at 4 days, 30 μM came out at 9%; the viability at 4 days, 100 μM is 8%.
As for `CC(C)C1=C2[C@H]3CC[C@@H]4[C@@]5(C)CC[C@H](OC(=O)[C@H]6C[C@@H](C(=O)O)C6(C)C)C(C)(C)[C@@H]5CC[C@@]4(C)[C@]3(C)CC[C@@]2(C(=O)N(CCN(C)C)Cc2ccc(Cl)cc2)CC1=O` [Example 14, (1R,3S)-3-((((3aR,5aR,5bR,7aR,9S,11aR,11bR,13aS)-3a-((4-chlorobenzyl)(2-(dimethylamino)ethyl)carbamoyl)-1-isopropyl-5a,5b,8,8,11a-pentamethyl-2-oxo-3,3a,4,5,5a,5b,6,7,7a,8,9,10,11,11a,11b,12,13,13a-octadecahydro-2H-cyclopenta[a]chrysen-9-yl)oxy)carbonyl)-2,2-dimethylcyclobutane-1-carboxylic acid], the IC50 in data set [1] (setting [4]) is 1.72 nM. Also, the IC50 in data set [1] (setting [5]) was 9.83 nM. In data set [1], the inhibition at 0.01 µM was 100%, the inhibition at 0.1 µM was 100% and the inhibition at 1 µM was 100%. In data set [2], this compound had an AUC(0-t) of 166000 ng·h/mL and a Cmax of 9640 ng/mL. In data set [3], the viability at 4 days, 10 μM turned out to be 91%; the viability at 4 days, 30 μM came out at 12%; the viability at 4 days, 100 μM was 12%.
In the case of `CC(C)C1=C2[C@H]3CC[C@@H]4[C@@]5(C)CC[C@H](OC(=O)[C@H]6C[C@@H](C(=O)O)C6(C)C)C(C)(C)[C@@H]5CC[C@@]4(C)[C@]3(C)CC[C@@]2(C(=O)N2CCC[C@H]2CN2CCC(F)(F)C2)CC1=O` [Example 6, (1R,3S)-3-((((3aR,5aR,5bR,7aR,9S,11aR,11bR,13aS)-3a-((S)-2-((3,3-difluoropyrrolidin-1-yl)methyl)pyrrolidine-1-carbonyl)-1-isopropyl-5a,5b,8,8,11a-pentamethyl-2-oxo-3,3a,4,5,5a,5b,6,7,7a,8,9,10,11,11a,11b,12,13,13a-octadecahydro-2H-cyclopenta[a]chrysen-9-yl)oxy)carbonyl)-2,2-dimethylcyclobutane-1-carboxylic acid], the IC50 in data set [1] (setting [4]) is 0.72 nM. The IC50 in data set [1] (setting [5]) was 203 nM. Also, in data set [1], the inhibition at 0.01 µM was 100%, the inhibition at 0.1 µM was 100% and the inhibition at 1 µM was 100%. Moreover, in data set [2], the AUC(0-t) was determined as 76600 ng·h/mL and the peak level (Cmax) was 11500 ng/mL. In data set [3], the viability at 4 days, 10 μM was 57%; the viability at 4 days, 30 μM was 10%; the viability at 4 days, 100 μM amounted to 6%.
On to `CC(C)C1=C2[C@H]3CC[C@@H]4[C@@]5(C)CC[C@H](OC(=O)[C@H]6C[C@@H](C(=O)O)C6(C)C)C(C)(C)[C@@H]5CC[C@@]4(C)[C@]3(C)CC[C@@]2(C(=O)N2CCC[C@H]2c2ncc(-c3ccc(F)cc3)[nH]2)CC1=O` [Example 2, (1R,3S)-3-((((3aR,5aR,5bR,7aR,9S,11aR,11bR,13aS)-3a-((S)-2-(5-(4-fluorophenyl)-1H-imidazol-2-yl)pyrrolidine-1-carbonyl)-1-isopropyl-5a,5b,8,8,11a-pentamethyl-2-oxo-3,3a,4,5,5a,5b,6,7,7a,8,9,10,11,11a,11b,12,13,13a-octadecahydro-2H-cyclopenta[a]chrysen-9-yl)oxy)carbonyl)-2,2-dimethlcyclobutane-1-carboxylic acid], for which, in data set [1] (setting [4]), the IC50 was 3.89 nM. Moreover, the concentration for half-maximal inhibition (IC50) in data set [1] (setting [5]) is 51.2 nM. For the same compound, in data set [1], the inhibition at 0.01 µM was 60%, the inhibition at 0.1 µM was 100% and the inhibition at 1 µM was 100%. In data set [2], this compound had an AUC(0-t) of 148000 ng·h/mL and a Cmax of 11900 ng/mL. In data set [3], this compound returned a viability at 4 days, 10 μM of 100%; a viability at 4 days, 30 μM of 100%; a viability at 4 days, 100 μM of 90%.
Turning to `CC(C)C1=C2[C@H]3CC[C@@H]4[C@@]5(C)CC[C@H](OC(=O)[C@H]6C[C@@H](C(=O)O)C6(C)C)C(C)(C)[C@@H]5CC[C@@]4(C)[C@]3(C)CC[C@@]2(C(=O)N2CCC[C@H]2CN2CCCC2)CC1=O` [Example 13, (1R,3S)-3-((((3aR,5aR,5bR,7aR,9S,11aR,1 bR,13aS)-1-isopropyl-5a,5b,8,8,11a-pentamethyl-2-oxo-3a-((S)-2-(pyrrolidin-1-ylmethyl)pyrrolidine-1-carbonyl)-3,3a,4,5,5a,5b,6,7,7a,8,9,10,11,11a,11b,12,13,13a-octadecahydro-2H-cyclopenta[a]chrysen-9-yl)oxy)carbonyl)-2,2-dimethylcyclobutane-1-carboxylic acid], in data set [1] (setting [4]), the half-inhibitory concentration (IC50) is 0.73 nM. Further, in data set [1] (setting [5]), the half-maximal inhibitory concentration (IC50) is 17.1 nM. In data set [1], the inhibition at 0.01 µM was 96%, the inhibition at 0.1 µM is 100% and the inhibition at 1 µM is 100%. In addition, in data set [2], the AUC(0-t) came out at 320000 ng·h/mL and the Cmax was found to be 17000 ng/mL. In data set [3], this compound returned a viability at 4 days, 10 μM of 69%; a viability at 4 days, 30 μM of 26%; a viability at 4 days, 100 μM of 28%.
